Measurements taken from article PMC2834284 (Journal of medicinal chemistry, 2010).
Converted amounts (≈) assume the structure as drawn. “Also recorded” adds a separate entry of the source.

Key:
[1] = test system: Plasmodium falciparum (W2 clone); experiment: In vitro antimalarial assay; format: cell-based; details: W2, 72 h, read-out: P. falciparum (W2 clone) IC50
Vero cells = details: African green monkey
[2] = test system: Plasmodium falciparum (D6 clone); experiment: In vitro antimalarial assay; format: cell-based; details: for IC50: Plasmodium falciparum, D6, 72 h, read-out: P. falciparum (D6 clone) IC50
[3] = test system: Cryptococcus neoformans ATCC 90113; experiment: In vitro antimicrobial assay, C. neoformans; format: cell-based; details: ATCC90113, read-out: C. neoformans IC50
rat neonatal microglia = experiment: Microglia LDH release; format: cell-based; details: for cytotoxicity (lactate dehydrogenase release) at highest concentration tested: 10 μM; for LDH LDH50: concentration causing 50% of maximal LDH release triggered by 0.1% Triton X-100
[4] = test system: mice inoculated with P. berghei; experiment: Initial in vivo evaluation; details: 3×10 mg/kg P.O.
[5] = test system: Plasmodium berghei infected mice; experiment: In vivo antimalarial assay, multiple oral dose; details: 3×5 mg/Kg
[6] = test system: Candida albicans ATCC 90028; experiment: In vitro antimicrobial assay, C. albicans; format: cell-based; details: ATCC90028, read-out: C. albicans IC50
[7] = test system: Mycobacterium intracellulare ATCC 23068; experiment: In vitro antimicrobial assay, M. intracellulare; format: cell-based; details: ATCC23068, read-out: M. intracellulare IC50
CDK-5 = details: panel of CDK-1, PKA, CDK-5, MAPK, GSK-3α; cited from earlier work
Staphylococcus aureus = details: cited from earlier work
[8] = test system: methicillin-resistant Staphylococcus aureus; details: cited from earlier work
[9] = test system: Mycobacterium tuberculosis; details: cited from earlier work
[10] = Stability in aqueous solution; format: physicochemical; details: over twenty-four months, exposure to light, room temperature, 0.05 N HCl aqueous solution (20 mg/mL)
in vitro = details: dog, MDCK-MDR1, pH 7.4
M. tuberculosis (H37Rv) = experiment: In vitro activity against M. tuberculosis; format: cell-based; details: Mycobacterium tuberculosis, read-out: M. tuberculosis (H37Rv) MIC
GSK-3β = details: panel of CDK-1, PKA, CDK-5, MAPK, GSK-3α; cited from earlier work
[11] = test system: malarial parasites in mice; details: oral administration 2×100 μmol/Kg; cited from earlier work
[12] = test system: Plasmodium berghei infected mice; experiment: In vivo antimalarial assay, oral single dose
[13] = test system: mice infected with malarial parasites; experiment: In vivo antimalarial assay, intraperitoneal administration; details: for toxicity / adverse reactions: i.p. 10×3 mg/kg in infected mice; for Cure (number of mice without parasitemia through day 28 post infection): of 5 mice
[14] = i.p. 10×3 mg/kg, mean parasitemia in control group as 100%

Compound: CC[C@@]1(O)CCCN2[C@@H](CC1)C[C@]13CN4CCCC/C=C\CC[C@](O)(C=C(c5nccc6c5[nH]c5c(O)cccc56)[C@@H]1CC4)[C@H]23 [Compound 18, 31-Ethylmanzamine F]
- IC50 [1]: 0.086 µg/mL (≈ 0.141 µM)
- no toxicity against Vero cells at the highest tested concentration (Vero cells): > 4.6 µg/mL

Compound: Oc1cccc2c1[nH]c1c(C3=C[C@@]4(O)CC/C=C\CCCCN5CC[C@@H]3[C@]3(C[C@@H]6CC[C@H](O)CCCN6[C@H]34)C5)nccc12 [Compound 16, 31β-Hydroxymanzamine F]
- P. falciparum (D6 clone) IC50 ([2]; chloroquine sensitive D6 clone, 72 h): did not improve the antimalarial activity

Compound: O=C1CCCN2[C@@H](CC1)C[C@]13CN4CCCC/C=C\CC[C@](O)(C=C(c5nccc6c5[nH]c5c(O)cccc56)C1CC4)[C@H]23 (some centres unmarked) [Compound 14, manzamine F]
- IC50 [3]: 6.5 µg/mL (≈ 11.2 µM)
- IC50 [2]: 0.78 µg/mL (≈ 1.34 µM)

Compound: COc1ccc2[nH]c3c(C4=C[C@@]5(O)CC/C=C\CCCCN6CC[C@@H]4[C@]4(C[C@@H]7/C=C\CCCCN7[C@H]45)C6)nccc3c2c1 [Compound 21a, 6-Methoxymanzamine A]
- cytotoxicity (lactate dehydrogenase release) at highest concentration tested (rat neonatal microglia): minimal cytotoxicity; also recorded: no toxicity
- LDH LDH50 (rat neonatal microglia): >10 µM

Compound: CC(C)CCn1c2ccccc2c2ccnc(C3=C[C@@]4(O)CC/C=C\CCCCN5CC[C@@H]3[C@]3(C[C@@H]6/C=C\CCCCN6[C@H]34)C5)c21 [Compound 6f, 9N-isopentylmanzamine A]
- LDH LDH50 (rat neonatal microglia): >10 µM

Compound: O[C@]12C=C(c3nccc4c3[nH]c3ccccc34)[C@@H]3CCN(CCCC/C=C\CC1)C[C@@]31C[C@@H]3CCCCCCN3[C@H]12 [Compound 5, Dihydromanzamine A]
- IC50 [2]: 0.2 µg/mL (≈ 0.363 µM)

Compound: CCN(CC)CCCC(C)Nc1ccnc2cc(Cl)ccc12 (centres unmarked) [Chloroquine]
- IC50 [1]: 0.155 µg/mL (≈ 0.485 µM)
- mean survival time [4]: 14.3 days
- MST Days [5]: > 30 days
- Inhibition of Parasitemia (%) ([5]; day 5 post infection vs untreated controls): 88%
- Average % Parasitemia ([5]; day 7 post infection): 4.5%
- Average % Parasitemia ([5]; day 10 post infection): 7.8%
- Average % Parasitemia ([5]; day 14 post infection): 13.5%
- Average % Parasitemia ([5]; day 21 post infection): 21.7%
- Average % Parasitemia ([5]; day 28 post infection): 39.3%
- IC50 [2]: 0.016 µg/mL (≈ 0.05 µM)

Compound: CCCCn1c2ccccc2c2ccnc(C3=C[C@@]4(O)CC/C=C\CCCCN5CC[C@@H]3[C@]3(C[C@@H]6/C=C\CCCCN6[C@H]34)C5)c21 [Compound 6d, 9N-butylmanzamine A]
- cytotoxicity (lactate dehydrogenase release) at highest concentration tested (rat neonatal microglia): minimal cytotoxicity; also recorded: no toxicity
- LDH LDH50 (rat neonatal microglia): >10 µM

Compound: [O-][N+]12CCCC/C=C\CC[C@]3(O)C=C(c4nccc5c4[nH]c4ccccc45)[C@H](CC1)[C@]1(C[C@@H]4/C=C\CCCC[N@+]4([O-])[C@H]13)C2 [Compound 13, 21, 27-N-oxamanzamine A]
- IC50 [1]: 0.067 µg/mL (≈ 0.115 µM)
- IC50 [2]: 0.017 µg/mL (≈ 0.0293 µM)

Compound: CC(=O)Oc1cccc2c1[nH]c1c(C3=C[C@@]4(O)CC/C=C\CCCCN5CC[C@@H]3[C@]3(C[C@@H]6/C=C\CCCCN6[C@H]34)C5)nccc12 [Compound 9, 8-Acetoxymanzamine A]
- IC50 [3]: 1.5 µg/mL (≈ 2.47 µM)
- IC50 [6]: 1.5 µg/mL (≈ 2.47 µM)
- IC50 [7]: 0.1 µg/mL (≈ 0.165 µM)

Compound: O[C@]12C=C(c3nccc4c3[nH]c3ccccc34)[C@@H]3CCN(CCCCCCCC1)C[C@@]31C[C@@H]3CCCCCCN3[C@H]12 [Compound 3, 15,16,32,33-tetrahydromanzamine A]
- IC50 [2]: 0.082 µg/mL (≈ 0.148 µM)

Compound: C[C@@H]1CC[C@H]2[C@@H](C)C(=O)O[C@@H]3O[C@@]4(C)CC[C@@H]1[C@]32OO4 [Artemisinin, reference compound]
- IC50 [1]: 0.008 µg/mL (≈ 0.0283 µM)

Compound: C[C@@H]1[C@H](O)[C@@H](C)/C=C/C=C/C=C/C=C/C=C/C=C/C=C/[C@H](O[C@@H]2O[C@H](C)[C@@H](O)[C@H](N)[C@@H]2O)C[C@@H]2O[C@](O)(C[C@@H](O)C[C@@H](O)[C@H](O)CC[C@@H](O)C[C@@H](O)CC(=O)O[C@H]1C)C[C@H](O)[C@H]2C(=O)O [Amphotericin B, reference compound]
- IC50 [3]: 0.75 µg/mL (≈ 0.812 µM)

Compound: O=C(O)c1cn(C2CC2)c2cc(N3CCNCC3)c(F)cc2c1=O [Ciprofloxacin, reference compound]
- IC50 [7]: 0.3 µg/mL (≈ 0.905 µM)

Compound: O[C@]12C=C(c3nccc4c3[nH]c3ccccc34)[C@@H]3CCN(CCCC/C=C\CC1)C[C@@]31C[C@@H]3/C=C\CCCCN3[C@H]12 [Compound 1, manzamine A]
- inhibition of CDK-5 (CDK-5): specifically inhibited
- IC50 [1]: 0.008 µg/mL (≈ 0.0146 µM)
- IC50 against Staphylococcus aureus (Staphylococcus aureus): 0.5 µg/mL (≈ 0.911 µM)
- IC50 against methicillin-resistant Staphylococcus aureus [8]: 0.7 µg/mL (≈ 1.28 µM)
- inhibition of Mycobacterium tuberculosis [9]: 98-99%
- stability (decomposition) in aqueous solution [10]: No significant decomposition
- cytotoxicity (lactate dehydrogenase release) at highest concentration tested (rat neonatal microglia): minimal cytotoxicity
- LDH LDH50 (rat neonatal microglia): >10 µM
- efflux ratio at 2 h, 50 μM (in vitro): < 1
- MIC (M. tuberculosis (H37Rv)): 1.5 µg/mL (≈ 2.73 µM)
- inhibition of GSK-3β (GSK-3β): specifically inhibited
- reduction in parasitemia [11]: 90%
- IC50 [3]: 1.5 µg/mL (≈ 2.73 µM)
- behavioral signs of toxicity ([12]; single oral dose 100 mg/kg): did not show any behavioral signs of toxicity
- signs of toxicity ([12]; single oral dose 200 or 300 mg/kg): began to exhibit signs of toxicity beyond weight loss
- IC50 [6]: 2 µg/mL (≈ 3.64 µM)
- Survival (number of animal survived day 28/total animal in group) ([13]; i.p. 10×3 mg/kg): 0/5
- toxicity / adverse reactions [13]: toxic
- %parasitemia suppression Day 5 [13, 14]: 100%
- Cure (number of mice without parasitemia through day 28 post infection) ([13]; i.p. 10×3 mg/kg): 0/5
- IC50 [7]: 0.35 µg/mL (≈ 0.638 µM)
- IC50 [2]: 0.0045 µg/mL (≈ 0.0082 µM)

Compound: CC(C)(C)Cn1c2ccccc2c2ccnc(C3=C[C@@]4(O)CC/C=C\CCCCN5CC[C@@H]3[C@]3(C[C@@H]6/C=C\CCCCN6[C@H]34)C5)c21 [Compound 6g, 9N-neopentylmanzamine A]
- cytotoxicity (lactate dehydrogenase release) at highest concentration tested (rat neonatal microglia): minimal cytotoxicity; also recorded: no toxicity
- LDH LDH50 (rat neonatal microglia): >10 µM

Compound: COC(=O)c1cc2c([nH]c3ccccc32)c(C2=C[C@@]3(O)CC/C=C\CCCCN4CC[C@@H]2[C@]2(C[C@@H]5/C=C\CCCCN5[C@H]23)C4)n1 [Compound 21b, Methyl manzamine A-3-carboxylate]
- cytotoxicity (lactate dehydrogenase release) at highest concentration tested (rat neonatal microglia): minimal cytotoxicity; also recorded: no toxicity
- LDH LDH50 (rat neonatal microglia): >10 µM

Compound: Oc1cccc2c1[nH]c1c(C3=C[C@@]4(O)CC/C=C\CCCCN5CC[C@@H]3[C@]3(CC6/C=C\CCCCN6[C@H]34)C5)nccc12 (some centres unmarked) [Compound 2, 8-hydroxymanzamine A]
- IC50 [1]: 0.008 µg/mL (≈ 0.0142 µM)
- inhibition of Mycobacterium tuberculosis [9]: 98-99%
- reduction in parasitemia [11]: 90%
- IC50 [3]: 2 µg/mL (≈ 3.54 µM)
- IC50 [6]: 3.5 µg/mL (≈ 6.2 µM)
- Survival (number of animal survived day 28/total animal in group) ([13]; i.p. 10×3 mg/kg): 5/5
- toxicity / adverse reactions [13]: mild reversible weight loss
- MST (mean survival time) ([13]; i.p. 10×3 mg/kg, * death related to toxicity): > 28 days
- %parasitemia suppression Day 5 [13, 14]: 100%
- %parasitemia suppression Day 7 [13, 14]: 100%
- Cure (number of mice without parasitemia through day 28 post infection) ([13]; i.p. 10×3 mg/kg): 4/5
- IC50 [7]: 0.1 µg/mL (≈ 0.177 µM)
- IC50 [2]: 0.006 µg/mL (≈ 0.0106 µM)

Compound: N/N=C1/CCCN2[C@@H](CC1)C[C@]13CN4CCCC/C=C\CC[C@](O)(C=C(c5nccc6c5[nH]c5c(O)cccc56)[C@@H]1CC4)[C@H]23 [Compound 15, Manzamine F-31-hydrazone]
- IC50 [2]: 0.029 µg/mL (≈ 0.0488 µM)
- no toxicity against Vero cells at the highest tested concentration (Vero cells): > 4.6 µg/mL
